Experimental data as given in US20230228744A1, “DRY EYE DISEASE BIOMARKERS AND THEIR USE FOR TREATMENT” (Aldeyra Therapeutics, Inc., priority 2020, published 2023).
Entries after “also recorded” stand apart in the source; their conditions may differ.

How the values were obtained:
[1] = system: RASP (reactive aldehyde species); test: In vitro RASP elimination by reproxalap; assay type: biochemical; details: reproxalap at equimolar concentrations
Source text: Regarding the use of tear RASP levels as a clinical endpoint, it is important to note that this is (to date) unprecedented. The FDA has not agreed to the use of RASP before as a clinical endpoint. In this regard, we have reached agreement with the US Food and Drug Administration (FDA) for the use of RASP (reactive aldehyde species) as an objective sign for the treatment of dry eye disease. RASP are pre-cytokine pro-inflammatory mediators that are elevated in the tears of patients with dry eye disease, and correlate with dry eye disease symptoms and signs. […] In in vitro studies, RASP were eliminated within 60 to 90 minutes when exposed to reproxalap at equimolar concentrations. […] The use of RASP as a trial endpoint represents the first novel objective sign for the treatment in dry eye disease in over a decade.

[2] = system: malondialdehyde (MDA) adducts in tears; test: Phase 2a clinical study, MDA adduct competitive ELISA in tears; assay type: in vivo, human; details: 28 days (4 weeks) of treatment, pooled reproxalap groups
Source text: The study was to assess levels of malondialdehyde (MDA) adducts in tears collected from subjects with dry eye disease enrolled in a Phase 2a, randomized, double-masked, clinical study to assess the safety, tolerability, and pharmacodynamic activity of ADX-102 ophthalmic solution in subjects with dry eye diseases, also referred to herein as dry eye syndrome (DES).
Tears were collected during Visit 1, prior to treatment, and during Visit 3, following four weeks of treatment. Treatment groups consisted of ADX-102 Ophthalmic Solution (0.5%), ADX-102 Ophthalmic Solution (0.1%), and ADX-102 Ophthalmic Lipid Solution (0.5%). […]
The assay is a competitive ELISA. […] The plate is read in a microplate reader at 450 nm. The assay OD reading decreases with increasing MDA adducts in the samples, as the adsorbed MDA competes for binding to the MDA antibody with MDA adducts in the test sample. […]
DES Study Samples. Based on the results of the pilot assay, a 1:60 dilution was determined to maximize the likelihood of the OD values falling within the linear portion of the standard curve, and thus provide the most accurate results. All tear samples from subjects (0.5% ADX-102 Ophthalmic Solution) and (0.1% ADX-102 Ophthalmic Solution) were analyzed, but results from some tear samples were excluded from the data analysis due to contamination with ocular staining dye in the Visit 3 samples. […]

Q: What does the source list for `CC(C)(O)c1nc2ccc(Cl)cc2cc1N` [reproxalap, Reproxalap]?
A: time to elimination of RASP [1]: 60 to 90 min; tear MDA adduct / RASP levels after treatment relative to baseline (pooled groups) [2]: reduction in tear RASP levels; also recorded: statistically lower
